Positions of bridges follow the written chain, without caps; N, C: chain ends. Residues, ends and D or L forms follow the SMILES beside them. No end group written: not given here.
Key:
[1] = test system: E. amylovora; conditions: 24 h, 10 μM
[2] = test system: X. citri; assay: Bacterial growth inhibition by OD600 absorbance, X. citri; type: cell-based, X. citri subsp. citri (ATCC 49118); conditions: peptide 10 μM, 24 hours at 30° C., OD 600 nm
Method: (§1) Antimicrobial activity of antimicrobial peptides was tested against the agricultural microbial pests A. tumefaciens, E. amylovora, E. coli, and X. citri, using OD absorbance measurement to detect bacterial growth.
(§2) Antimicrobial peptides were synthesized using solid phase peptide synthesis method and resuspended in 10% DMSO to a 1 mM stock concentration. The stock solution was aliquoted in cryovials and stored at −80° C.
(§3) An aliquot of 198 μl of the bacterial culture was added to each well in a 96-well plate and 2 μl of a 1 mM peptide stock solution was added to each well, for a final treatment concentration of 10 μM of a given peptide. Media only wells were included to control for contamination. The positive controls were 50 μg/ml oxytetracycline hydrochloride and 500 μg/ml streptomycin sulfate. A 0.1% DMSO treatment was included as a negative control.
(§4) An initial absorbance reading of the bacterial suspensions was taken at 600 nm. Then, the bacteria were grown in an incubator at 30° C. (A. tumefaciens, E. amylovora, X. citri) or 37° C. (E. coli) for 24 hours, after which the final absorbance reading was measured. Using the initial and final absorbance reading compared to negative and positive controls, the percent inhibition of the bacterial strain by given peptide treatment was determined.

[3] = test system: A. tumefaciens; conditions: 24 h, 10 μM
[4] = test system: E. coli; assay: Bacterial growth inhibition by OD600 absorbance, E. coli; type: cell-based, E. coli (DH5-alpha); conditions: peptide 10 μM, 24 hours at 37° C., OD 600 nm
Method: as §1, §2, §3, §4

GIKFFLKKLKKHI [compound 115]
growth inhibition, E. amylovora [1]: <90%
growth inhibition, X. citri [2]: 100.00%
growth inhibition, A. tumefaciens [3]: <90%
growth inhibition, E. coli [4]: <90%

LKKWWKTSKGLLGGLLGKVTSVIK [compound 34]
growth inhibition, E. amylovora [1]: 100.00%
growth inhibition, X. citri [2]: 100.00%
growth inhibition, A. tumefaciens [3]: 100.00%
growth inhibition, E. coli [4]: 100.00%

KLKKLLKKWLKLLKKLLK [compound 68]
growth inhibition, E. amylovora [1]: <90%
growth inhibition, X. citri [2]: <90%
growth inhibition, A. tumefaciens [3]: <90%
growth inhibition, E. coli [4]: 100.00%

AAKAWLKLWAKAA [compound 135]
growth inhibition, E. amylovora [1]: <90%
growth inhibition, X. citri [2]: <90%
growth inhibition, A. tumefaciens [3]: <90%
growth inhibition, E. coli [4]: <90%

ALKSLLKTLSKAKAAKLKTLLKALSK [compound 30]
growth inhibition, E. amylovora [1]: 100.00%
growth inhibition, X. citri [2]: 100.00%
growth inhibition, A. tumefaciens [3]: 100.00%
growth inhibition, E. coli [4]: 98.52%

KKIGIWIGIKK [compound 141]
growth inhibition, E. amylovora [1]: <90%
growth inhibition, X. citri [2]: <90%
growth inhibition, A. tumefaciens [3]: <90%
growth inhibition, E. coli [4]: <90%

IRVKIRVKIRVK [compound 128]
growth inhibition, E. amylovora [1]: 99.30%
growth inhibition, X. citri [2]: <90%
growth inhibition, A. tumefaciens [3]: 97.32%
growth inhibition, E. coli [4]: 100.00%

GLWSKIKEVGKEAAKAAAKAAGKAALGAVSEAV [compound 16]
growth inhibition, E. amylovora [1]: 100.00%
growth inhibition, X. citri [2]: 100.00%
growth inhibition, A. tumefaciens [3]: 100.00%
growth inhibition, E. coli [4]: 100.00%

ALWFTMLKKLGTMALHAGKAALGAAANTISQGTQ [compound 9]
growth inhibition, E. amylovora [1]: 91.75%
growth inhibition, X. citri [2]: 100.00%
growth inhibition, A. tumefaciens [3]: 99.90%
growth inhibition, E. coli [4]: <90%

CC[C@H](C)[C@H](NC(=O)CNC(=O)[C@@H]1CCCN1C(=O)CNC(=O)[C@H](CC(C)C)NC(=O)[C@H](CC(N)=O)NC(=O)[C@H](C)NC(=O)[C@H](Cc1ccccc1)NC(=O)[C@H](CC(N)=O)NC(=O)[C@H](C)NC(=O)[C@H](CCCNC(=N)N)NC(=O)[C@H](Cc1ccccc1)NC(=O)[C@H](C)NC(=O)[C@@H](NC(=O)[C@H](CCCNC(=N)N)NC(=O)[C@H](Cc1c[nH]c2ccccc12)NC(=O)[C@H](Cc1ccc(O)cc1)NC(=O)[C@H](CC(=O)O)NC(=O)[C@H](C)NC(=O)[C@H](CC(C)C)NC(=O)CN)[C@@H](C)O)C(=O)N[C@@H](CCCNC(=N)N)C(=O)N[C@@H](CS)C(=O)N[C@@H](CCCCN)C(=O)N[C@@H](CO)C(=O)N[C@@H](C)C(=O)N[C@@H](CCCNC(=N)N)C(=O)N[C@@H](CS)C(=O)O [compound 18] (H-GLADYWRTAFRANFANLGPGIRCKSARC-OH; N-terminus and C-terminus assumed)
growth inhibition, E. amylovora [1]: <90%
growth inhibition, A. tumefaciens [3]: <90%

C[C@@H](O)[C@H](NC(=O)[C@H](CS)NC(=O)[C@@H](N)Cc1c[nH]c2ccccc12)C(=O)N[C@@H](Cc1c[nH]c2ccccc12)C(=O)N[C@@H](CCCCN)C(=O)NCC(=O)N[C@@H](CCC(N)=O)C(=O)N1CCC[C@H]1C(=O)N[C@@H](CS)C(=O)N[C@@H](Cc1c[nH]c2ccccc12)C(=O)O [compound 3] (H-WCTWKGQPCW-OH; N-terminus and C-terminus assumed)
growth inhibition, E. amylovora [1]: <90%
growth inhibition, A. tumefaciens [3]: <90%

DCLSGRYKGPCAVWDNETCRRVCKEEGRSSGHCSPSLKCWCEGC (disulfide 2-44, 11-33, 19-39, 23-41) [compound 145]
growth inhibition, E. amylovora [1]: <90%
growth inhibition, A. tumefaciens [3]: <90%

Reference: patent publication US20250381242A1 (INVAIO SCIENCES, INC., priority 2024, published 2025)
